US20150094264A1, “USE OF OBESTATIN FOR MUSCLE REGENERATION” (UNIVERSIDADE DE SANTIAGO DE COMPOSTELA, priority 2012, published 2015)

Columns and labels:
[1] = system: p38; assay: Activation of p38 [pp38(Y138)] by obestatin in L6E9 myoblasts, immunoblot; type: cell-based, rat
Protocol: FIG. 1. Activation of regulatory enzymes of mitogenesis and myogenesis by obestatin in L6E9 myoblasts and myotubes. Effect of obestatin on activity of regulatory enzymes of the mitogenic capacity (ERK 1/2), metabolic capacity (Akt and AMPK) and myogenic capacity (Akt and p38). Based on a dose-response study, the saturating dose for the maximum enzymatic activation is established for a concentration of 5 nM. […] Inactivation of AMPK is described in both cell models. The activation profile discovers bimodal characteristics for the action of obestatin: 1.—mitogenic activation in myoblasts; and, 2.—myogenic activation. The immunoblots are representative of 6 independent assays.
(§1) The studies were performed based on the use of L6E9 rat myoblasts which were maintained in growth medium (GM) formed by DMEM (Dulbecco's Modified Eagle Medium) supplemented with 10% fetal bovine serum (FBS), 100 U/mL penicillin, and 100 U/mL streptomycin. For the differentiation, the cells were cultured at 80-100% of confluence in GM and it was replaced for differentiation medium (DM) formed by DMEM supplemented with 2% FBS, 100 U/mL penicillin, and 100 U/mL streptomycin during 6 days.
(§2) The tissue or cell samples were directly lysed in RIPA buffer [Tris-HCl (pH 7.2), 50 mM; NaCl, 150 mM; EDTA, 1 mM; NP-40, 1% (v/v); Sodium deoxycholate, 0.25% (w/v); protease inhibitors (Sigma); phosphatise inhibitors (Sigma)]. The lysates were clarified by centrifugation (14,000×g during 15 min at 4° C.) and the protein concentration was quantified using QuantiPro™ BCA assay kit (Sigma). For immunoblot, equal amounts of protein were loaded which were fractionated in SOS-PAGE gels and transferred to nitrocellulose membranes. The immunoreactive bands were detected by chemiluminescence (Pierce ECL Western Blotting Substrate; Thermo Scientific, Ill., USA).
To define the mitogenic and myogenic effect of obestatin, the activation capacity was studied of intracellular targets regulating proliferation (ERK1/2) and/or differentiation (p38 and Akt). […]

[2] = system: L6E9 cells (rat myoblasts); assay: Expression of myogenic markers myogenin and MHC in L6E9 cells in differentiation medium, immunoblot; type: cell-based; conditions: DM, six days
Excerpt: FIG. 3. Effect of obestatin on the expression of the myogenic markers myogenin and MHC in L6E9 myoblasts. Effect of the stimulation with different doses of obestatin (0.01-100) on the expression of the myogenic markers myogenin and myosin (MHC) 6 days after the induction of the differentiation by the use of differentiation medium (DM: DMEN+2% FBS). The protein expression levels refer to the levels of myoblasts in growth medium (GM: DMEN+10% FBS), non-differentiated. The data are represented as % with respect to the cell expression in GM (mean±standard error of 6 independent experiments). The evaluation of the degree of expression was performed by immunoblot by the use of the ImageJ64 program (*, p<0.05).
as §1, §2
The L6E9 cells were cultured in DM complemented with different concentrations of obestatin in a range of 0.01-100 nM during six days.

[3] = system: skeletal muscle tissue (gastrocnemius and soleus) in male rats; assay: Chronic administration by osmotic mini-pumps: myogenic markers in gastrocnemius and soleus of rat, immunoblot; type: in vivo, Sprague-Dawley rats; conditions: 300 nmol/kg body weight/24 h s.c. infusion, 72 h
Protocol: FIG. 7. Effect of the chronic administration of obestatin on the myogenic markers in the gastrocnemius and soleus of rat (animal model). Effect of the administration during 72 hours of obestatin (300 nmol/kg/24 h; 72 h) by the implantation of mini-pumps on early and later markers of myogenesis in skeletal muscle tissue (gastrocnemius and soleus) in male rats. A: Western-blot analysis. First column: control; second column: treatment with obestatin. B: Protein levels in gastrocnemius. White column: control; grey column: treatment with obestatin. The protein levels are expressed as % of the control obtained from the group of animals with implantation of mini-pumps with saline (n=10 per group; mean±standard error; *, p<0.05). C: Protein levels in soleus. White column: control; grey column: treatment with obestatin. The protein levels are expressed as % of the control obtained from the group of animals with implantation of mini-pumps with saline (n=10 per group; mean±standard error; *, p<0.05).
as §2
Two animal models were used for the in vivo assays: Sprague-Dawley rats and Swiss mice. The Sprague-Dawley (250 g; n=20) rats were maintained in 12 h light-darkness cycled with free access to standard diet and water. The Alzet® mini-pumps (model 1003D) were subcutaneously implanted. The animals were assigned to one of the two experimental groups (n=10/group): 1) control group (mini-pumps with saline); and, 2) obestatin group (mini-pumps implanted containing 300 nmol/kg weight/24 h). These mini-pumps allow a diffusion flow of 1 microL/h. After 72 h, the rats were sacrificed by cervical dislocation under anaesthetic treatment, and soleus and gastrocnemius tissues were extracted for immunoblot analysis.
Based on the short mean life of obestatin in plasma, osmotic mini-pumps were used for the in vivo administration of this peptide. Two groups of male rats were worked with: a group of 10 male rats received the continuous subcutaneous infusion of obestatin during 72 h (300 nmol/kg body weight/24 h); and another group of 10 rats received the equivalent volume of PBS during 72 h. The animals were sacrificed and the gastrocnemius and soleus muscles were removed and processed to analyse the expression of key factors of muscular differentiation by immunoblot. […] The increase in both types of muscle of the family of regulatory factors of different stages in myogenesis show a clear muscle regenerative capacity for obestatin.

[4] = system: L6E9 myoblasts; assay: Cicatrization capacity (migration/invasion) in L6E9 myoblasts; type: cell-based, rat; conditions: obestatin 5 nM
Protocol: FIG. 6. Evaluation of the cicatrization capacity (migration/invasion) of obestatin in L6E9 myoblasts. A: the L6E9 myoblasts grew to 100% of confluence in GM and later the damage was induced with a sterile pipette. The cells were maintained in GM or GM-obestatin (5 nM) during 8 and 24 hours after the induction of cell damage (40× magnification). B: quantification of the % of cicatrization (mean±standard error; *, p<0.05).
The L6E9 cells were cultured until reaching a confluence of 100% in GM. Having reached said confluence, the damage was produced by the use of a sterile pipette point which made it possible to perform two linear and perpendicular channels. After the damage, the cells were washed and cultured with GM or GM+obestatin (5 nM). The progress of the migration was immediately photographed after the damage and at 8 and 24 hours, close to the crossing point. The “invaded” area was calculated by tracing the “cicatrization” edge and using ImageJ64 software. The percentage of cicatrization was calculated based on the following equation:% cicatrization=[(area 0 h−area xh)/area 0 h]×100.

obestatin
obestatin concentration at which activation of p38 [pp38(Y138)] was observed [1]: 0.1 nM
obestatin concentration at which pp38(Y138) phosphorylation levels reached saturable values ([1]; dose-response): 5 nM
time post-stimulation of maximum pp38(Y138) levels ([1]; obestatin 5 nM): 10 min
increase of MHC expression in relation to the control cells ([2]; 5 nM obestatin): −1.6
increase of myogenin expression in relation to the control cells ([2]; 5 nM obestatin): −1.7
obestatin concentration of maximum effect on myogenin and MHC expression ([2]; range 0.01-100 nM): 5 nM
MHC protein levels in relation to control rats ([3]; gastrocnemius and soleus): significantly increased
Myf5 protein levels in relation to control rats ([3]; gastrocnemius and soleus): significantly increased
Myf6 protein levels in relation to control rats ([3]; gastrocnemius and soleus): significantly increased
MyoD protein levels in relation to control rats ([3]; gastrocnemius and soleus): significantly increased
Pax-7 protein levels in relation to control rats ([3]; gastrocnemius and soleus): significantly increased
myogenin protein levels in relation to control rats ([3]; gastrocnemius and soleus): significantly increased
Six-1 protein levels in relation to control rats ([3]; gastrocnemius): no effect at all
Six-1 protein levels in relation to control rats ([3]; soleus): significant increased
increase of migration index (cicatrization) in relation to control cells ([4]; 8 hours after inducing cell damage): 53%
increase of migration index (cicatrization) in relation to control cells ([4]; 24 hours after inducing cell damage): 21%
